Reference: patent US5407660A, “Diagnostic liposomal compositions for enhancing NMR imaging” (Mallinckrodt Medical, Inc., priority 1993, dated 1995)
“Also recorded” adds a separate entry of the source. Where two headings read alike, the source gives them in different places.

Experiments:
[1] = type: in vivo, marmosets; details: for T1 (mean), Blood: 0.3 ml/kg, pre-contrast 507
[2] = Acute intravenous toxicity in mice (Example 4); details: for Cumulative Mortalities/Number Dosed, Female / Cumulative Mortalities/Number Dosed, Male: 7 days; for LD50: 7-day observation
Experimental: (§1) In addition, the cardiotoxic effects of single bolus intracoronary arterial injections of 4, 8, 16 or 32 mg MnCl2 were evaluated in the isolated perfused rabbit heart (IPRH).
(§2) The aqueous vehicle for the suspension of negatively charged liposomes consisted of 0.9% NaCl buffered with 0.003 M sodium phosphate, pH 7.4. The lipid concentration was 50 μmol/ml.
A total of 60 mice, 30 males (body weight range of 20-33.5 g) and 30 females (body weight range of 19.1-29.7 g) were used. Fifty of the mice were Swiss ICR, CD-1, obtained from Charles River and ten were Swiss CF-1 obtained from Sasco (Omaha, Neb.).
The four test substances were administered via the lateral tail vein of the mouse at a rate of 1 ml/min with the following doses given.

[3] = tested on: isolated perfused rabbit heart; test: Intracoronary cardiotoxicity in the isolated perfused rabbit heart (IPRH)
Experimental: as §1, §2
A total of 8 female, New Zealand albino rabbits, with body weights ranging from 1.97-2.96 kg were used in the study.
Rabbits were sacrificed by cervical dislocation, the hearts excised and coronary perfusion was performed at constant pressure via the aortic root using an oxygenated physiological salt solution (Chenoweth's solution) heated to 37° C. A 0.8%, w/v, solution of MnCl2 was heated to 37° C. and intracoronary bolus injections of 0.5, 1.0, 2.0 and 4.0 ml were made in each of the six hearts via a sidearm of the perfusion apparatus. A period of time sufficient to allow the heart to stabilize was allowed between injections. The heart rate (HR), contractile force (CF) and electrocardiogram (ECG) were recorded on a Grass Model 7 polygraph. The maximal percentage changes from pre-injection control values for HR and CF were determined during intervals of […] and 15-30 seconds after injection. The percentage changes from control HR and CF were also recorded at 1, 2, 3 and 4 minutes after injection. The ECG was examined for arrhythmias. When ventricular fibrillation (VF) occurred, no calculations were performed with CF and HR data from that injection.

[4] = Biodistribution of 54MnNa2 EDTA and 54Mn-L in rats (Example 5); type: in vivo, Sprague-Dawley rats
Excerpt: A total of forty Sprague-Dawley rats (20 male, 217-295 g; 20 female, 151-208 g; Charles River) were used. Drinking water was provided ad libitum. The animals, 2 males and 2 females per group, were selected randomly from their cages and were identified with indelible ink numbers at tail bases before test substance administration.
Rats were divided into 10 groups consisting of 2 male and 2 female rats per group. […] Immediately after dosing, rats were housed in individual metabolism cages. Ground Purina Laboratory Chow and water were supplied ad libitum to animals sacrificed at 24 and 48 hr after treatment. Rats from both ^54 NmNa2 EDTA and ^54 Mn-L treatment groups were sacrificed by cervical dislocation at 0.5, 2, 4, 24 and 48 hr after treatment, and the following samples were obtained: injection site, blood, liver, lung, spleen, heart, kidneys, salivary gland (submaxillary), brain, bone with marrow, muscle and fat. Urine samples were obtained from animals sacrificed at all intervals of 2 hr or more after injection and fecal samples were obtained from animals sacrificed at 24 and 48 hr after treatment. […] The entire organ weights were determined for the remaining tissues.
Levels of radioactivity in the biological specimens and aliquots of the injected test substances were determined using a gamma scintillation spectrometer (Model 1085, Nuclear Chicago Corp., Des Plaines, Ill.). Results were calculated on a percent dose/organ (or fluid) and a percent dose/g (or ml) basis using an HP-85 desk top computer (Hewlett Packard, Fort Collins, Colo.).
Kinetic data for the elimination of radioactivity from liver, spleen, kidneys, heart and bone with marrow were curve fitted by the peeling and least-square methods, to mono or bi-exponential equations: [formula]
The half-life (t 1/2) for each elimination phase was calculated as 0.693/Ki. The square of the correlation coefficient (r^2) for each elimination phase was calculated as an indication of variability.

[5] = 32 mg dose, 0-15 s, only 1 heart, all others had VF

## O.O.O=C([O-])CN(CC(=O)[O-])[C@@H]1CCCC[C@H]1N(CC(=O)[O-])CC(=O)[O-].[Mn+2].[Na+].[Na+] (relative stereo) [EXAMPLE 1 (E), disodium (trans-1,2-diaminocyclohexane-N,N,N',N'-tetraacetate) manganese dihydrate]
[1]; 0.3 ml/kg i.v.
  Blood (5 min) and liver T1 values (in words): substantially reduced
  several other tissue T1's (in words): slightly reduced
[1]; 5 minute
  T1 (mean), Blood: 375
[1]; 10 minute
  T1 (mean), Blood: 454
[1]; 15 min after 0.3 ml/kg
  Tissue T1 (mean), Bladder: 217
  Tissue T1 (mean), Fat: 68
  Tissue T1 (mean), Large Intestine: 185
  Tissue T1 (mean), Liver: 32
  Tissue T1 (mean), Lung: 280
  Tissue T1 (mean), Pancreas: 103
  Tissue T1 (mean), Renal Cortex: 152
  Tissue T1 (mean), Renal Medulla: 209
  Tissue T1 (mean), Skeletal Muscle: 206
  Tissue T1 (mean), Small Intestine: 107
  Tissue T1 (mean), Spleen: 221
  Tissue T1 (mean), Stomach: 145
[1]; 15 min after 0.3 ml/kg (0.118 mmol Mn(II)/kg)
  Tissue T1 (mean), Heart: 183
[1]; 15 minute
  T1 (mean), Blood: 511
[1]; in vivo, iv
  Cardiovascular effects: minimal

## [Cl][Mn][Cl] [MnCl2, manganese (II) chloride]
[2]; 25 mg/kg i.v.
  Cumulative Mortalities/Number Dosed, Female: 1/5
  Cumulative Mortalities/Number Dosed, Male: 3/5
[2]; 31.25 mg/kg i.v.
  Cumulative Mortalities/Number Dosed, Female: 4/5
  Cumulative Mortalities/Number Dosed, Male: 2/5
[2]; 37.5 mg/kg i.v.
  Cumulative Mortalities/Number Dosed, Female: 4/5
  Cumulative Mortalities/Number Dosed, Male: 4/5
[2]; all deaths with the exception of one (4 days)
  time of death after dosing was completed: one
[2]; intravenous, mice
  acute intravenous toxicity (in words): high degree of acute toxicity
[2]; intravenous, mice, 10080 min
  LD50: 28 mg/kg
  LD50 as Mn(II): 0.22 mmol/kg of Mn(II)
[2]; intravenous, mice, listed as 1, 10080 min
  LD50: 28.0 mg/kg
[2]; intravenous, mice, thoracotomy of one mouse
  cause of death: cardiac arrest
[3]; 4 mg dose
  Incidence of Ventricular Fibrillation (VF): 0/6
[3]; 4 mg dose, 0-15 s
  Mean % Change in Contractile Force (CF): -5%
  Mean % Change in Heart Rate (HR): -2%
[3]; 4 mg dose, 15-30 s
  Mean % Change in Contractile Force (CF): -28%
  Mean % Change in Heart Rate (HR): -2%
[3]; 4 mg dose, 1 min
  Mean % Change in Contractile Force (CF): -12%
[3]; 4 mg dose, 2 min
  Mean % Change in Contractile Force (CF): +5%
  Mean % Change in Heart Rate (HR): -2%
[3]; 8 mg dose
  Incidence of Ventricular Fibrillation (VF): 0/6
[3]; 8 mg dose, 0-15 s
  Mean % Change in Contractile Force (CF): -74%
  Mean % Change in Heart Rate (HR): -8%
[3]; 8 mg dose, 15-30 s
  Mean % Change in Contractile Force (CF): -38%
  Mean % Change in Heart Rate (HR): -7%
[3]; 8 mg dose, 1 min
  Mean % Change in Contractile Force (CF): -17%
  Mean % Change in Heart Rate (HR): -7%
[3]; 8 mg dose, 2 min
  Mean % Change in Contractile Force (CF): +2%
  Mean % Change in Heart Rate (HR): -6%
[3]; 16 mg dose
  Incidence of Ventricular Fibrillation (VF): 2/6
[3]; 16 mg dose, 0-15 s
  Mean % Change in Contractile Force (CF): -92%
  Mean % Change in Heart Rate (HR): -31%
[3]; 16 mg dose, 15-30 s
  Mean % Change in Contractile Force (CF): -61%
  Mean % Change in Heart Rate (HR): -14%
[3]; 16 mg dose, 1 min
  Mean % Change in Contractile Force (CF): -37%
  Mean % Change in Heart Rate (HR): -14%
[3]; 16 mg dose, 2 min
  Mean % Change in Contractile Force (CF): -1%
  Mean % Change in Heart Rate (HR): -11%
[3]; 16 mg dose, during or immediately after injection
  premature ventricular contractions in hearts which did not fibrillate: two of the four hearts
[3]; 32 mg dose
  Incidence of Ventricular Fibrillation (VF): 5/6
  conduction block in the single heart which failed to fibrillate: complete A-V conduction block with ventricular standstill
[3]; [5]
  Mean % Change in Contractile Force (CF): -100%
  Mean % Change in Heart Rate (HR): -100%
[3]; 32 mg dose, 15-30 s
  Mean % Change in Contractile Force (CF): -64%
  Mean % Change in Heart Rate (HR): -17%
[3]; 32 mg dose, 1 min
  Mean % Change in Contractile Force (CF): -33%
  Mean % Change in Heart Rate (HR): -17%
[3]; 32 mg dose, 2 min
  Mean % Change in Contractile Force (CF): +2%
  Mean % Change in Heart Rate (HR): -14%
[3]; 4-32 mg
  arrhythmias (in words): dose-related incidence of arrhythmias; also recorded: conduction delays and ventricular arrhythmias
[3]; 4-32 mg, maximal within 0-15 seconds
  effect on CF and HR (in words): Dose-related decreases in CF and HR; also recorded: dose-related depression of contractility and heart rate
[3]; ECG, 4-32 mg
  PR and QRS intervals: dose-related increases in PR and QRS intervals

## O=C([O-])CN(CCN(CC(=O)[O-])CC(=O)[O-])CC(=O)[O-].[54Mn+2].[Na+].[Na+] [^54 MnNa2 EDTA, disodium (ethylenediaminetetraacetato) manganese (II)]
[4]; 0.5-48 hr
  distribution, percent dose/organ (in words): distributed primarily to the liver, bone with marrow, muscle and kidneys
[4]; bone and marrow
  bone and marrow half-life: > 100 h
[4]; heart
  heart half-life, monophasic elimination: approximately 8 hr
[4]; intravenous
  blood disappearance/clearance (in words): rapidly cleared from the blood
[4]; kidney
  share associated with rapid first phase renal elimination: Approximately 81%
[4]; kidney, biphasic
  renal clearance t 1/2, initial rapid phase: < 1 h
  renal clearance t 1/2, secondary slow phase: > 17 h
[4]; liver
  share associated with rapid first phase hepatic elimination: Approximately 92%
[4]; liver, biphasic
  hepatic clearance t 1/2, initial rapid phase: < 1 h
  hepatic clearance t 1/2, secondary slow phase: > 17 h
[4]; spleen
  spleen half-life, monophasic elimination: ~ 2 hr
[4]; within 2 hr after treatment
  dose eliminated in the urine: > 50%
